Earlier results as cited in patent US20110313054A1, “BRANCHED COPOLYMERS, COMPOSITION AND USES” (Unilever PLC, priority 2009, published 2011).

Settings: in water at 20° C.

SMILES | Solubility in water w/w at 20° C.
C=C(C)C(=O)O [Methacrylic acid] | Soluble
C=C(C)C(=O)OCCO [2-Hydroxyethyl methacrylate] | 3.00 w/w
C=C(C)C(=O)OCC(C)O (centres unmarked) [2-Hydroxypropyl methacrylate] | 2.17 w/w
C=CC(=O)OCCO [2-Hydroxyethyl acrylate] | soluble
C=CC(=O)OCC(C)O (centres unmarked) [2-Hydroxypropyl acrylate] | Soluble
